Test results: PubChem BioAssay AID434974 (The Scripps Research Institute Molecular Screening Center, 2010)
Active and inactive are the calls of the source. How the calls were made is not given here.

How the values were obtained:
Assay in all cases: off-target binding across PDSP receptor panel, profiling panel, selectivity assay for NOX1 inhibitor project, biochemical, radioligand binding (AID 434974)
Nicotinic receptor A4B2 = conditions: receptor displacement, at 10 µM, hits give high values
[1] = target: Oxytocin receptor (Homo sapiens) (UniProt P30559); conditions: receptor displacement, at 10 µM, hits give high values
Sequence of Oxytocin receptor (Homo sapiens) (P30559 whole entry, looked up): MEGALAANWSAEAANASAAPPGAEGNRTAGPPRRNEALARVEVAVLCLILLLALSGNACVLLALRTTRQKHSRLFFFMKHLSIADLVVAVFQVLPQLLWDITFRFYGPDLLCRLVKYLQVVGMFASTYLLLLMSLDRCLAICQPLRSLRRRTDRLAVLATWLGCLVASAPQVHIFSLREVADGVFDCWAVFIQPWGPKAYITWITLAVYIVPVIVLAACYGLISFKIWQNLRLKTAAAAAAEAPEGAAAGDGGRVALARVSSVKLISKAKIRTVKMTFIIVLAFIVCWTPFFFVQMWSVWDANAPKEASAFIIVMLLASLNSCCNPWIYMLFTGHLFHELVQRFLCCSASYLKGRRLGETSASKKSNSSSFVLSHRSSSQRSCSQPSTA

Serotonin receptor 5ht1e = conditions: receptor displacement, at 10 µM, hits give high values
Serotonin receptor 5ht2a = conditions: receptor displacement, at 10 µM, hits give high values
Sigma receptor 1 = conditions: receptor displacement, at 10 µM, hits give high values
[2] = target: D(1B) dopamine receptor (Homo sapiens) (UniProt P21918); conditions: receptor displacement, Dopamine receptor D5, at 10 µM, hits give high values
Sequence of D(1B) dopamine receptor (Homo sapiens) (P21918 whole entry, looked up): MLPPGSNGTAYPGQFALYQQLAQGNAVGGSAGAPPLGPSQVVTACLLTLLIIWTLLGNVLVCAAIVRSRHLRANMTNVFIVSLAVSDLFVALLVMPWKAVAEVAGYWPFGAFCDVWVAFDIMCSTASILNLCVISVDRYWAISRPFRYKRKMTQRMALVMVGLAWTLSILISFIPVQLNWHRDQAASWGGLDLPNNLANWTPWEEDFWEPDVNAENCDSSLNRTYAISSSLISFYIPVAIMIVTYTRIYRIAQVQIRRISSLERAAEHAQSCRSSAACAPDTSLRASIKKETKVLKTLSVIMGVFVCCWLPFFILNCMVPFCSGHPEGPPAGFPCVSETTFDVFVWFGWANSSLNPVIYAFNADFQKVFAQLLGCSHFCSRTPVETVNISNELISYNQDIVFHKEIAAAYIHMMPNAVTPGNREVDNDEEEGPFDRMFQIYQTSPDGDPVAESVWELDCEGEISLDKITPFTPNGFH

[3] = target: Alpha-2B adrenergic receptor (Homo sapiens) (UniProt P18089); conditions: receptor displacement, Adrenergic receptor Alpha2B, at 10 µM, hits give high values
Sequence of Alpha-2B adrenergic receptor (Homo sapiens) (P18089 whole entry, looked up): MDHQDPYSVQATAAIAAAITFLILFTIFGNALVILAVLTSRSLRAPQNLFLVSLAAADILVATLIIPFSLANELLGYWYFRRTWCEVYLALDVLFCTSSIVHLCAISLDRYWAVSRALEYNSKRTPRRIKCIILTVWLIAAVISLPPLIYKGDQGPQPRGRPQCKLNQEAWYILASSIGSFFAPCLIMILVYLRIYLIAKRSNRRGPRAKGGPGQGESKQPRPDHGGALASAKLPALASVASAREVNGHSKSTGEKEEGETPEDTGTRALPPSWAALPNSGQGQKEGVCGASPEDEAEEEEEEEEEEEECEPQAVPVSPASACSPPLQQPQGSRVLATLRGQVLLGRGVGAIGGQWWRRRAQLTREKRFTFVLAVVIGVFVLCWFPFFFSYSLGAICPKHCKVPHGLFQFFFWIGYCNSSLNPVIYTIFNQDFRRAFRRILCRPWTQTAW

Nicotinic receptor A3B4 = conditions: receptor displacement, at 10 µM, hits give high values
[4] = target: Alpha-2A adrenergic receptor (Homo sapiens) (UniProt P08913); conditions: receptor displacement, Adrenergic receptor Alpha2A, at 10 µM, hits give high values
Sequence of Alpha-2A adrenergic receptor (Homo sapiens) (P08913 whole entry, looked up): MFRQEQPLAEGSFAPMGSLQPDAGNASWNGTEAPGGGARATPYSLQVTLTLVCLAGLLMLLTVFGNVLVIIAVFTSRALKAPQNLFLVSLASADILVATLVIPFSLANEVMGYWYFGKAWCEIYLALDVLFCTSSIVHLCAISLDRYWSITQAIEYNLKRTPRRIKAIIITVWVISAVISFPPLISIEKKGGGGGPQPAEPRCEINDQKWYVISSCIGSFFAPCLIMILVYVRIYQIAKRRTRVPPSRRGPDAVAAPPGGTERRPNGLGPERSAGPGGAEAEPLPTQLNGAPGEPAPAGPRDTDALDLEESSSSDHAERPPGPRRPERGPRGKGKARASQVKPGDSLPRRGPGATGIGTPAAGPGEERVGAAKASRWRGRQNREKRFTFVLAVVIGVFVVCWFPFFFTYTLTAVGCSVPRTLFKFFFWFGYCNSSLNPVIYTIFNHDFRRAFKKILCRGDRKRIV

[5] = test system: Adrenergic receptor Alpha1D; conditions: receptor displacement, at 10 µM, hits give high values
Muscarinic receptor M5 = conditions: receptor displacement, at 10 µM, hits give high values
Opioid receptor MOR = conditions: receptor displacement, at 10 µM, hits give high values
[6] = test system: Prostaglandin receptor EP3; conditions: receptor displacement, at 10 µM, hits give high values
[7] = test system: Biogenic amine transporter NET; conditions: receptor displacement, at 10 µM, hits give high values
Nicotinic receptor A3B2 = conditions: receptor displacement, at 10 µM, hits give high values
[8] = test system: Biogenic amine transporter SERT; conditions: receptor displacement, at 10 µM, hits give high values
[9] = test system: Adrenergic receptor Beta3; conditions: receptor displacement, at 10 µM, hits give high values
Histamine receptor H4 = conditions: receptor displacement, at 10 µM, hits give high values
[10] = test system: Adrenergic receptor Alpha1A; conditions: receptor displacement, at 10 µM, hits give high values
Muscarinic receptor M4 = conditions: receptor displacement, at 10 µM, hits give high values
Sigma receptor 2 = conditions: receptor displacement, at 10 µM, hits give high values
Nicotinic receptor A2B2 = conditions: receptor displacement, at 10 µM, hits give high values
[11] = target: Muscarinic acetylcholine receptor M3 (Homo sapiens) (UniProt P20309); conditions: receptor displacement, at 10 µM, hits give high values
Sequence of Muscarinic acetylcholine receptor M3 (Homo sapiens) (P20309 whole entry, looked up): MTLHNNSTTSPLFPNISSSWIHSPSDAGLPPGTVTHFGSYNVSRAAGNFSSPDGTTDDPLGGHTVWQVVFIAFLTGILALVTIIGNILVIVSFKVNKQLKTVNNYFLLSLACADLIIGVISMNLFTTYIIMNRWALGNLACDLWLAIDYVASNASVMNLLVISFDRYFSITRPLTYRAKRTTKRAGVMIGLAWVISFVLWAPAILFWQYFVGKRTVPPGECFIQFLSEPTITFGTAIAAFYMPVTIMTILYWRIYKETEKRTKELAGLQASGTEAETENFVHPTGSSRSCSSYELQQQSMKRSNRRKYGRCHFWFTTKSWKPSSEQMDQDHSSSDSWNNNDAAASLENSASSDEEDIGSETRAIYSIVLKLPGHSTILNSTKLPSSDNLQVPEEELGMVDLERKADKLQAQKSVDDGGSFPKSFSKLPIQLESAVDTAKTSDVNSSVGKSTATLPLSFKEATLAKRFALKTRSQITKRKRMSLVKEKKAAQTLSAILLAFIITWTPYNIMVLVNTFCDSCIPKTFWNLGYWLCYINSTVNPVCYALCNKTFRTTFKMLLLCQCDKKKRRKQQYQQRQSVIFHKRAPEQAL

[12] = target: Muscarinic acetylcholine receptor M2 (Homo sapiens) (UniProt P08172); conditions: receptor displacement, at 10 µM, hits give high values
Sequence of Muscarinic acetylcholine receptor M2 (Homo sapiens) (P08172 whole entry, looked up): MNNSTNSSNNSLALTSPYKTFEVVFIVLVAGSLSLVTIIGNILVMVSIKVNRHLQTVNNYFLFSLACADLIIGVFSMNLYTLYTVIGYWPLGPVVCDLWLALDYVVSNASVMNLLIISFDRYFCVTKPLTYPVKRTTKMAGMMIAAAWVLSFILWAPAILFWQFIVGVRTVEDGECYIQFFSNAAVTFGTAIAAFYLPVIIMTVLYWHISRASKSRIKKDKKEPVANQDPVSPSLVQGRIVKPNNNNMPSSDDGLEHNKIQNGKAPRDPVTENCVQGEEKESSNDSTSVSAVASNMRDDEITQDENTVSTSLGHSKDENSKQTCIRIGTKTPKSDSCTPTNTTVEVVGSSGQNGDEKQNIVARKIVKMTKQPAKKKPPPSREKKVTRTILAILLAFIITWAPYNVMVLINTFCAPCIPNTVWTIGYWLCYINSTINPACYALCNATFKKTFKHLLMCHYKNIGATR

Ca+ Channel = conditions: receptor displacement, at 10 µM, hits give high values
[13] = target: Beta-2 adrenergic receptor (Homo sapiens) (UniProt P07550); conditions: receptor displacement, Adrenergic receptor Beta2, at 10 µM, hits give high values
Sequence of Beta-2 adrenergic receptor (Homo sapiens) (P07550 whole entry, looked up): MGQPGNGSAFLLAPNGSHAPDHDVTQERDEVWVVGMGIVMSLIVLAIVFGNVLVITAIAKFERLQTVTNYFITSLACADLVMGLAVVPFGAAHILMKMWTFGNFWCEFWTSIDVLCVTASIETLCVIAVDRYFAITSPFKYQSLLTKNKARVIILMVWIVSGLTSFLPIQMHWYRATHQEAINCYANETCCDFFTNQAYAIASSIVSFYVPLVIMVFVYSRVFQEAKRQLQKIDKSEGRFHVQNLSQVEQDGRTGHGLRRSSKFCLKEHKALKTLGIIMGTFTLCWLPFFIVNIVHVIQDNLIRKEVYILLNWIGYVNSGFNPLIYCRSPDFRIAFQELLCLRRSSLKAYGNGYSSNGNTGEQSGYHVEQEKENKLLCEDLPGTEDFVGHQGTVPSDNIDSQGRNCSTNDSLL

GABA receptor GABAa = conditions: receptor displacement, at 10 µM, hits give high values
Serotonin receptor 5ht6 = conditions: receptor displacement, at 10 µM, hits give high values
Serotonin receptor 5ht1a = conditions: receptor displacement, at 10 µM, hits give high values
[14] = test system: Biogenic amine transporter DAT; conditions: receptor displacement, at 10 µM, hits give high values
Vasopressin receptor V1A = conditions: receptor displacement, at 10 µM, hits give high values

CN1c2ccccc2Sc2cc(N)ccc21
inhibition (Nicotinic receptor A4B2): 1% (inactive) | inhibition [1]: 38.3% (inactive) | inhibition (Serotonin receptor 5ht1e): 13.1% (inactive) | inhibition (Serotonin receptor 5ht2a): 33.2% (inactive) | inhibition (Sigma receptor 1): 50.1% | inhibition [2]: 16.8% (inactive) | inhibition [3]: 58.8% | inhibition (Nicotinic receptor A3B4): 0% (inactive) | inhibition [4]: 50.7% | inhibition [5]: 23.8% (inactive) | inhibition (Muscarinic receptor M5): 2.3% (inactive) | inhibition (Opioid receptor MOR): -18% (inactive) | inhibition [6]: 0% (inactive) | inhibition [7]: 60.5% | inhibition (Nicotinic receptor A3B2): 4% (inactive) | inhibition [8]: 16.4% (inactive) | inhibition [9]: 3.5% (inactive) | inhibition (Histamine receptor H4): 10.1% (inactive) | inhibition [10]: 36.3% (inactive) | inhibition (Muscarinic receptor M4): 19.3% (inactive) | inhibition (Sigma receptor 2): 9% (inactive) | inhibition (Nicotinic receptor A2B2): -4% (inactive) | inhibition [11]: -5.8% (inactive) | inhibition [12]: 22.4% (inactive) | inhibition (Ca+ Channel): -19.4% (inactive) | inhibition [13]: -0.9% (inactive) | inhibition (GABA receptor GABAa): 25% (inactive) | inhibition (Serotonin receptor 5ht6): 30.8% (inactive) | inhibition (Serotonin receptor 5ht1a): 34.4% (inactive) | inhibition [14]: 16% (inactive) | inhibition (Vasopressin receptor V1A): 4% (inactive)
